According to patent US20220016277A1, “MACROCYCLIC COMPLEXES OF RADIONUCLIDES AND THEIR USE IN RADIOTHERAPY OF CANCER” (Cornell University, priority 2018, published 2022):

Legend:
[1] = Kinetic inertness of La^3+ complex of macropa: transchelation challenge; format: physicochemical; conditions: La^3+ complex of macropa formed in situ; 1000 equiv of DTPA; whole 21-day observation
Procedure: (§1) Kinetic Inertness of La^3+ and Lu^3+ Complexes of Macropa: Transchelation Challenge. A stock solution of ethylenediaminetetraacetic acid (EDTA, 100 mM) was made in MOPS buffer (prepared as described above) by adjusting the pH of the initial suspension to 6.6 using aqueous NMe4OH. A stock solution of diethylenetriaminepentaacetic acid (DTPA, 125 mM) was prepared in H2O by adjusting the pH to 7.4 as described for EDTA. This solution was serially diluted with H2O to yield 12.5 mM and 1.25 mM solutions of DTPA.
(§2) The preformed La^3+ and Lu^3+ complexes of macropa were challenged with EDTA. […] […]. Solutions were repeatedly analyzed by UV spectroscopy over the course of 21 days for any spectral changes. The final pH of each solution was between 7.18 and 7.25.
The complex formed in situ between La^3+ and macropa was more rigorously challenged with excess DTPA. A solution containing 500 μM of complex, prepared using the LaCl3 and macropa stock solutions described above, was left to equilibrate for 5 min. Subsequently, it was portioned into cuvettes and diluted with either 125 mM DTPA, 12.5 mM DTPA, 1.25 mM DTPA, or MOPS to yield solutions containing 1000-, 100-, 10-, or 0-fold excess DTPA and 100 μM concentration of macropa. These solutions were repeatedly analyzed by UV spectroscopy over the course of 21 days for any spectral changes. The final pH of each solution was between 7.11 and 7.42.

[2] = Kinetic inertness of Lu^3+ complex of macropa: transchelation challenge; format: physicochemical; conditions: Lu^3+ complex of macropa formed in situ; addition of 10 equiv of EDTA; pH 7.4
Procedure: as §1, §2

## O=C(O)c1cccc(CN2CCOCCOCCN(Cc3cccc(C(=O)O)n3)CCOCCOCC2)n1 [macropa, N,N′-bis[(6-carboxy-2-pyridil)methyl]-4,13-diaza-18-crown-6]
[1]
  time La^3+ complex remained intact: up to 21 days
[2]
  time until Lu^3+ ion was transchelated: ≤ 1 min
